Consider twelve molecules from US12310975B2, “Modulators of BCL6 proteolysis and associated methods of use” (Arvinas Operations, Inc., priority 2019, dated 2025).

Molecules are shown by their SMILES.

For orientation: IC50 means the concentration that gives 50% inhibition. High values mean weaker potency in that assay, low ones greater potency in that assay. One may read the Dmax as the greatest extent of degradation seen. The low end stands for shallow degradation, the high end for deep degradation.

The first assay deals with BCL6 (Homo sapiens (Human), UniProt P41182). In words: Immunofluorescence high content imaging of BCL6 degradation in T47D cells. The class given is cell-based.
Settings: not given
An outline of the steps:
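Read-out is BCL6 immunofluorescence quantified by high-content imaging (10×, 4 fields per well) of T47D breast cancer cells. Cells were exposed for 3 days to degrader in an 11-point, 3-fold serial dilution reaching a final top concentration of 0.1 or 1 μM.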
For the molecule `CN1CC[C@@H](Oc2cc3cc(Nc4nc(N5CCC(CN6CCN(c7ccc8c(c7)C(=O)N(C7CCC(=O)NC7=O)C8=O)CC6)CC5)ncc4Cl)ccc3n(C)c2=O)C1=O` (stereo partly drawn) [compound 258, 5-(4-((1-(5-chloro-4-((1-methyl-3-(((R)-1-methyl-2-oxopyrrolidin-3-yl)oxy)-2-oxo-1,2-dihydroquinolin-6-yl)amino)pyrimidin-2-yl)piperidin-4-yl)methyl)piperazin-1-yl)-2-(2,6-dioxopiperidin-3-yl)isoindoline-1,3-dione], the IC50 is no less than 100 nM.
The same measure, in the same setting: under `Cc1nnc(-c2cc3cc(Nc4nc(N5CCN(C(C)(C)C6CCN(c7ccc8c(c7)C(=O)N(C7CCC(=O)NC7=O)C8=O)CC6)CC5)ncc4Cl)ccc3n(C)c2=O)o1` (centres unmarked) [compound 285, 5-(4-{2-[4-(5-chloro-4-{[1-methyl-3-(5-methyl-1,3,4-oxadiazol-2-yl)-2-oxo-1,2-dihydroquinolin-6-yl]amino}pyrimidin-2-yl)piperazin-1-yl]propan-2-yl}piperidin-1-yl)-2-(2,6-dioxopiperidin-3-yl)-2,3-dihydro-1H-isoindole-1,3-dione] stands 10 to 50 nM.

The same assay, now with this note: T47D.
On to `Cc1nnc(-c2cc3cc(Nc4nc(N5CCN(C(C)(C)C6CCN(c7ccc8c(c7)C(=O)N(C7CCC(=O)NC7=O)C8=O)CC6)CC5)ncc4Cl)ccc3n(C)c2=O)o1` (centres unmarked) [compound 285, 5-(4-{2-[4-(5-chloro-4-{[1-methyl-3-(5-methyl-1,3,4-oxadiazol-2-yl)-2-oxo-1,2-dihydroquinolin-6-yl]amino}pyrimidin-2-yl)piperazin-1-yl]propan-2-yl}piperidin-1-yl)-2-(2,6-dioxopiperidin-3-yl)-2,3-dihydro-1H-isoindole-1,3-dione], for which the Dmax is less than 50%.

The same assay, now with this note: T47D cells.
In the case of `CCCCn1c(=O)c(OCC(=O)NC)cc2cc(Nc3nc(N4CCN(CC5CCN(c6ccc7c(c6)C(=O)N(C6CCC(=O)NC6=O)C7=O)CC5)CC4)ncc3Cl)ccc21` (centres unmarked) [compound 317, 2-{[1-butyl-6-({5-chloro-2-[4-({1-[2-(2,6-dioxopiperidin-3-yl)-1,3-dioxo-2,3-dihydro-1H-isoindol-5-yl]piperidin-4-yl}methyl)piperazin-1-yl]pyrimidin-4-yl}amino)-2-oxo-1,2-dihydroquinolin-3-yl]oxy}-N-methylacetamide], the Dmax lay within 50 to 70% and the IC50 is less than 10 nM.
For `CNC(=O)COc1cc2cc(Nc3nc(N4CCC(F)(CN5CCN(c6cccc7c6C(=O)N(C6CCC(=O)NC6=O)C7=O)CC5)CC4)ncc3Cl)ccc2n(C)c1=O` (centres unmarked) [compound 342, 2-{[6-({5-chloro-2-[4-({4-[2-(2,6-dioxopiperidin-3-yl)-1,3-dioxo-2,3-dihydro-1H-isoindol-4-yl]piperazin-1-yl}methyl)-4-fluoropiperidin-1-yl]pyrimidin-4-yl}amino)-1-methyl-2-oxo-1,2-dihydroquinolin-3-yl]oxy}-N-methylacetamide] the same measures were 50 to 70% and less than 10 nM.
For `CCn1c(=O)c(OCC(=O)NC)cc2cc(Nc3nc(N4CCC(COC5CCN(c6cccc7c6C(=O)N(C6CCC(=O)NC6=O)C7=O)CC5)CC4)ncc3Cl)ccc21` (centres unmarked) [compound 332, 2-({6-[(5-chloro-2-{4-[({1-[2-(2,6-dioxopiperidin-3-yl)-1,3-dioxo-2,3-dihydro-1H-isoindol-4-yl]piperidin-4-yl}oxy)methyl]piperidin-1-yl}pyrimidin-4-yl)amino]-1-ethyl-2-oxo-1,2-dihydroquinolin-3-yl}oxy)-N-methylacetamide] the same measures were 50 to 70% and less than 10 nM.
As for `CNC(=O)COc1cc2cc(Nc3nc(N4CCC5(CC4)CC(OC4CCN(c6cccc7c6C(=O)N(C6CCC(=O)NC6=O)C7=O)CC4)C5)ncc3Cl)ccc2n(C(C)C)c1=O` (centres unmarked) [compound 393, 2-{[6-({5-chloro-2-[2-({1-[2-(2,6-dioxopiperidin-3-yl)-1,3-dioxo-2,3-dihydro-1H-isoindol-4-yl]piperidin-4-yl}oxy)-7-azaspiro[3.5]nonan-7-yl]pyrimidin-4-yl}amino)-2-oxo-1-(propan-2-yl)-1,2-dihydroquinolin-3-yl]oxy}-N-methylacetamide], the Dmax was no less than 70% and the IC50 is less than 10 nM.
`CNC(=O)COc1cc2cc(Nc3nc(N4CCC(CN5CCC(c6cccc(N7CCC(=O)NC7=O)c6)CC5)CC4)ncc3Cl)ccc2n(C(C)C)c1=O` [compound 416, 2-{[6-({5-chloro-2-[4-({4-[3-(2,4-dioxo-1,3-diazinan-1-yl)phenyl]piperidin-1-yl}methyl)piperidin-1-yl]pyrimidin-4-yl}amino)-2-oxo-1-(propan-2-yl)-1,2-dihydroquinolin-3-yl]oxy}-N-methylacetamide] came in with an IC50 of no less than 100 nM.
`CNC(=O)COc1cc2cc(Nc3nc(N4CCN(CC5CCN(c6ccc(C(=O)NC7CCC(=O)NC7=O)c(OC)c6)CC5)CC4)ncc3Cl)ccc2n(C(C)C)c1=O` (centres unmarked) [compound 376, 4-[4-({4-[5-chloro-4-({3-[(methylcarbamoyl)methoxy]-2-oxo-1-(propan-2-yl)-1,2-dihydroquinolin-6-yl}amino)pyrimidin-2-yl]piperazin-1-yl}methyl)piperidin-1-yl]-N-(2,6-dioxopiperidin-3-yl)-2-methoxybenzamide] registered a Dmax of 50 to 70% and an IC50 of less than 10 nM.
With `CNC(=O)COc1cc2cc(Nc3nc(N4CCC(CN5CC6(CCN(c7cccc8c7C(=O)N(C7CCC(=O)NC7=O)C8=O)CC6)C5)CC4)ncc3Cl)ccc2n(C(C)C)c1=O` (centres unmarked) [compound 439, 2-{[6-({5-chloro-2-[4-({7-[2-(2,6-dioxopiperidin-3-yl)-1,3-dioxo-2,3-dihydro-1H-isoindol-4-yl]-2,7-diazaspiro[3.5]nonan-2-yl}methyl)piperidin-1-yl]pyrimidin-4-yl}amino)-2-oxo-1-(propan-2-yl)-1,2-dihydroquinolin-3-yl]oxy}-N-methylacetamide], the Dmax fell in the range of 50 to 70% and the IC50 is less than 10 nM.
With `CCCC(C1CCN(c2ccc3c(c2)C(=O)N(C2CCC(=O)NC2=O)C3=O)CC1)N1CCN(c2ncc(Cl)c(Nc3ccc4c(c3)cc(OCC(=O)NC)c(=O)n4C)n2)CC1` (centres unmarked) [compound 338, 2-{[6-({5-chloro-2-[4-(1-{1-[2-(2,6-dioxopiperidin-3-yl)-1,3-dioxo-2,3-dihydro-1H-isoindol-5-yl]piperidin-4-yl}butyl)piperazin-1-yl]pyrimidin-4-yl}amino)-1-methyl-2-oxo-1,2-dihydroquinolin-3-yl]oxy}-N-methylacetamide], the Dmax is less than 50% and the IC50 is less than 10 nM.

Still in this assay, the particulars now being: class symbols A-D, read-out: EC50 (nM)*.
On to `CNC(=O)COc1cc2cc(Nc3nc(N4CCC(Cc5cn(CCOc6ccc7c(c6)C(=O)N(C6CCC(=O)NC6=O)C7=O)nn5)CC4)ncc3Cl)ccc2n(C)c1=O` (centres unmarked) [compound 112, 2-((6-((5-chloro-2-(4-((1-(2-((2-(2,6-dioxopiperidin-3-yl)-1,3-dioxoisoindolin-5-yl)oxy)ethyl)-1H-1,2,3-triazol-4-yl)methyl)piperidin-1-yl)pyrimidin-4-yl)amino)-1-methyl-2-oxo-1,2-dihydroquinolin-3-yl)oxy)-N-methylacetamide], for which the DC50 was in the range of 10 to 50 nM.
Same read-out and setting: under `CNC(=O)COc1cc2cc(Nc3nc(N4CCC(c5cn(CCOCCOCCOCCOc6ccc7c(c6)C(=O)N(C6CCC(=O)NC6=O)C7=O)nn5)CC4)ncc3Cl)ccc2n(C)c1=O` (centres unmarked) [compound 129, 2-((6-((5-chloro-2-(4-(1-(2-(2-(2-(2-((2-(2,6-dioxopiperidin-3-yl)-1,3-dioxoisoindolin-5-yl)oxy)ethoxy)ethoxy)ethoxy)ethyl)-1H-1,2,3-triazol-4-yl)piperidin-1-yl)pyrimidin-4-yl)amino)-1-methyl-2-oxo-1,2-dihydroquinolin-3-yl)oxy)-N-methylacetamide] stands greater than 100 nM.
